Measured values taken from ChEMBL document CHEMBL1143444, “Dual EGFR/ErbB-2 inhibitors from novel pyrrolidinyl-acetylenic thieno[3,2-d]pyrimidines” (Bioorg Med Chem Lett, 2008).

Key:
[1] = tested on: HN5; assay: Antiproliferative activity against human HN5 cells overexpressing EGFR after 3 days by methylene blue staining; conditions: HN5, 72 h
[2] = tested on: BT-474; assay: Antiproliferative activity against human BT474 cells overexpressing ErbB2 after 3 days by methylene blue staining; conditions: BT-474, 72 h
[3] = tested on: Mus musculus; assay: Dose normalized AUC in po dosed mouse; assay type: ADME, organism-based; conditions: in vivo
[4] = Antiproliferative activity against human foreskin fibroblast after 3 days by methylene blue staining; conditions: 72 h
[5] = target: Epidermal growth factor receptor (Homo sapiens, UniProt P00533); assay: Inhibition of EGFR kinase
[6] = target: Receptor tyrosine-protein kinase erbB-2 (Homo sapiens, UniProt P04626)
Chain of Receptor tyrosine-protein kinase erbB-2 (P04626 whole entry): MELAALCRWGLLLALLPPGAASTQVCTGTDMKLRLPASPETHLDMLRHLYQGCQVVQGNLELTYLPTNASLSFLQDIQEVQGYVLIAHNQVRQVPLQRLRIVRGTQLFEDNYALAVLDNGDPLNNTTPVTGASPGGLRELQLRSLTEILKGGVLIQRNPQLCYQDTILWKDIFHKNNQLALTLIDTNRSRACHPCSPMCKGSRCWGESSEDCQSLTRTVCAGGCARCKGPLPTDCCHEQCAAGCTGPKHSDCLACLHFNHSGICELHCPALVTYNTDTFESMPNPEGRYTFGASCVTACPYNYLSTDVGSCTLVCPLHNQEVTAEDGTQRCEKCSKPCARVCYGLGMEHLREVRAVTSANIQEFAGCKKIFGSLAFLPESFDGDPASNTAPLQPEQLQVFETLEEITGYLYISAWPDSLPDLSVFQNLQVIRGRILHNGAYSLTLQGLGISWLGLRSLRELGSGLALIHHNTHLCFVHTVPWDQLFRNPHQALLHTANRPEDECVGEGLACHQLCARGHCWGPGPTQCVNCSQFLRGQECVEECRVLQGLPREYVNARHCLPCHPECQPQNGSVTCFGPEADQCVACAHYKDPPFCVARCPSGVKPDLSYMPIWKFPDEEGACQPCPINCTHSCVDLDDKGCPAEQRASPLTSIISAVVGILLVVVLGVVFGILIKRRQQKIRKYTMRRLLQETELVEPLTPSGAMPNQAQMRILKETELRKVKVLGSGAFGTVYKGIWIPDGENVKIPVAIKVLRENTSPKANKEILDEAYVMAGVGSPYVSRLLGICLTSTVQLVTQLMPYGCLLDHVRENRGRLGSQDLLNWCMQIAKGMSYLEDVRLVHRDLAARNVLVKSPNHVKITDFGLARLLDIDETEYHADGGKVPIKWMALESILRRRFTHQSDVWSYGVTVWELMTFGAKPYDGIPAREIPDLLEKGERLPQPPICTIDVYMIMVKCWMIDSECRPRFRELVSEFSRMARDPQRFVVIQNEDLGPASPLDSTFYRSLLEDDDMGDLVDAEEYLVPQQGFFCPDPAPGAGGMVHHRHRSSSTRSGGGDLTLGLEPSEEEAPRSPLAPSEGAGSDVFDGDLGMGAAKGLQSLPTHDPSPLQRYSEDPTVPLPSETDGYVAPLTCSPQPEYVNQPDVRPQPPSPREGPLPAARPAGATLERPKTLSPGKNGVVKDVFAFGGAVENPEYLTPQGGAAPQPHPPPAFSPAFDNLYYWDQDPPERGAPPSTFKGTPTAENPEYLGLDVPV
Description: Inhibition of ErbB2 kinase

Chain of Epidermal growth factor receptor (P00533 whole entry): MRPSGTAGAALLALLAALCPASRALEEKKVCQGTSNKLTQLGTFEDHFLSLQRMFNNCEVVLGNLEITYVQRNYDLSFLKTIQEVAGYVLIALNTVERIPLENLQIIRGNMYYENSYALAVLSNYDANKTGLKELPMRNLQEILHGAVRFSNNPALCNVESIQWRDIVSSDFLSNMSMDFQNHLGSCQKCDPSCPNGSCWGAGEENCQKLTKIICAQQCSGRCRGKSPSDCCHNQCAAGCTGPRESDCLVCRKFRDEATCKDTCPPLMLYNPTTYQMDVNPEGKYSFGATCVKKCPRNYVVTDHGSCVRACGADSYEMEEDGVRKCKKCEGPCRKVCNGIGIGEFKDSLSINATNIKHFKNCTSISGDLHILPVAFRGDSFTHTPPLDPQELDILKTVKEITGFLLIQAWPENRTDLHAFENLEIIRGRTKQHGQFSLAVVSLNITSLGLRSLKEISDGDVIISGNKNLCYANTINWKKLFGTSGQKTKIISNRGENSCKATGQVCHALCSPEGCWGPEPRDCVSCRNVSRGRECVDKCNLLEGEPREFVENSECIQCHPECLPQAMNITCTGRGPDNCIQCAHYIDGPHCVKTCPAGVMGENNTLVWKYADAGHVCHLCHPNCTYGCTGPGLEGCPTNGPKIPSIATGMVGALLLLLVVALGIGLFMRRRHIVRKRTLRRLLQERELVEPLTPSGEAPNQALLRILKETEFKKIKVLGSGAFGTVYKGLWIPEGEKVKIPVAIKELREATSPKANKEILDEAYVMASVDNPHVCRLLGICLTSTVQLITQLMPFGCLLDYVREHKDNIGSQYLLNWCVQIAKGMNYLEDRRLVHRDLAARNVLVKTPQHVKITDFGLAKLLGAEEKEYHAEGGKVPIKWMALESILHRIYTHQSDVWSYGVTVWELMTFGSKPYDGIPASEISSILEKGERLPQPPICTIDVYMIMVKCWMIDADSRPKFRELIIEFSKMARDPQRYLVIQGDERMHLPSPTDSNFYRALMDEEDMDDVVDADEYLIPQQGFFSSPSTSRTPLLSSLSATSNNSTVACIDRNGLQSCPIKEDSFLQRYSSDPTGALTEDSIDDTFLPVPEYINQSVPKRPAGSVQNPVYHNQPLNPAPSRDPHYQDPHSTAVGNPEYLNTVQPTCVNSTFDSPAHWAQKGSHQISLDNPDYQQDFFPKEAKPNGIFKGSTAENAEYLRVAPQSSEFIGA

Structure (SMILES) | IC50 [2] | AUC [3] | IC50 [5] | IC50 [6] | IC50 [1] | IC50 [4]
CS(=O)(=O)N1CCC[C@@H]1C#Cc1cc2ncnc(Nc3ccc(OCc4cccc(F)c4)c(Cl)c3)c2s1 | 650 nM |  | 120 nM | 88 nM | 550 nM | > 1000 nM
CC(=O)N1CCC[C@@H]1C#Cc1cc2ncnc(Nc3ccc(OCc4cccc(F)c4)c(Cl)c3)c2s1 | 670 nM |  | 58 nM | 38 nM | 37 nM | > 1000 nM
Fc1cccc(COc2ccc(Nc3ncnc4cc(C#C[C@@H]5CCCN5)sc34)cc2Cl)c1 | 205 nM |  | 109 nM | 54 nM | 536 nM | > 1000 nM
Fc1cccc(COc2ccc(Nc3ncnc4cc(C#C[C@H]5CCCN5)sc34)cc2Cl)c1 | 94 nM |  |  |  | 238 nM | > 1000 nM
CCO[C@H]1CN[C@H](C#Cc2cc3ncnc(Nc4ccc(OCc5cccc(F)c5)c(Cl)c4)c3s2)C1 | 45 nM |  | 115 nM | 98 nM | 99 nM | > 1000 nM
COC(=O)N1CCC[C@@H]1C#Cc1cc2ncnc(Nc3ccc(OCc4cccc(F)c4)c(Cl)c3)c2s1 | 1700 nM |  | 140 nM | 120 nM | 590 nM | > 1000 nM
O[C@H]1CN[C@H](C#Cc2cc3ncnc(Nc4ccc(OCc5cccc(F)c5)c(Cl)c4)c3s2)C1 | 39 nM | 9 ng·kg·h/mg/mL |  | 11 nM |  | > 1000 nM
CS(=O)(=O)O[C@H]1CN[C@H](C#Cc2cc3ncnc(Nc4ccc(OCc5cccc(F)c5)c(Cl)c4)c3s2)C1 | 86 nM |  | 81 nM | 40 nM | 380 nM | > 1000 nM
CCS(=O)(=O)N[C@H]1CN[C@H](C#Cc2cc3ncnc(Nc4ccc(OCc5cccc(F)c5)c(Cl)c4)c3s2)C1 | 42 nM |  | 50 nM |  | 127 nM | > 1000 nM
COCCN1CCC[C@@H]1C#Cc1cc2ncnc(Nc3ccc(OCc4cccc(F)c4)c(Cl)c3)c2s1 |  |  | 130 nM |  | 190 nM | > 1000 nM
CCOC(=O)N[C@H]1CN[C@H](C#Cc2cc3ncnc(Nc4ccc(OCc5cccc(F)c5)c(Cl)c4)c3s2)C1 | 40 nM |  | 60 nM | 78 nM | 113 nM | > 1000 nM

Second part, led by results:

IC50 [2] | AUC [3] | IC50 [5] | IC50 [6] | Structure (SMILES) | IC50 [1] | IC50 [4]
28 nM | 18 ng·kg·h/mg/mL | 50 nM | 20 nM | CNC(=O)O[C@H]1CN[C@H](C#Cc2cc3ncnc(Nc4ccc(OCc5cccc(F)c5)c(Cl)c4)c3s2)C1 | 58 nM | > 1000 nM
18 nM |  | 63 nM | 90 nM | CCC(=O)O[C@H]1CN[C@H](C#Cc2cc3ncnc(Nc4ccc(OCc5cccc(F)c5)c(Cl)c4)c3s2)C1 | 52 nM | > 1000 nM
34 nM |  | 141 nM | 135 nM | CCOC(=O)O[C@H]1CN[C@H](C#Cc2cc3ncnc(Nc4ccc(OCc5cccc(F)c5)c(Cl)c4)c3s2)C1 | 200 nM | > 1000 nM
30 nM |  |  |  | CN(C)C(=O)O[C@H]1CN[C@H](C#Cc2cc3ncnc(Nc4ccc(OCc5cccc(F)c5)c(Cl)c4)c3s2)C1 [GSK-182497A] |  | > 1000 nM
30 nM | 61 ng·kg·h/mg/mL | 32 nM |  | CCNC(=O)O[C@H]1CN[C@H](C#Cc2cc3ncnc(Nc4ccc(OCc5cccc(F)c5)c(Cl)c4)c3s2)C1 [GSK-192082A] | 95 nM | > 1000 nM
30 nM |  |  |  | O=C(O[C@H]1CN[C@H](C#Cc2cc3ncnc(Nc4ccc(OCc5cccc(F)c5)c(Cl)c4)c3s2)C1)N1CCOCC1 [GW869810X] |  | > 1000 nM
